# Data from US6355799B1, “Substituted benzene compounds, process for their preparation, and herbicidal and defoliant compositions containing them” (ISK Americas Incorporated, priority 1997, dated 2002).
# Tests used:
# Format in all cases: in vivo
# [1] = system: barnyardgrass (Echinochloa crus-galli, ECHCG); assay: Pre-emerge test, greenhouse herbicide activity screening; details: rated 14 days after application, 0 = no damage, 100 = complete death
# Summary of the method: (§1)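 Rating: 0–100 visual injury, 14 DAA. Application: acetone, 187 l/ha, 15–1000 g ai/ha, flat-fan track sprayer with nozzle 40–45 cm above soil or canopy. Post-emerge runs used 0.25% v/v surfactant on 2–3 leaf plants.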
# [2] = system: ivyleaf morningglory (Ipomoea hederacea, IPOHE); assay: as above; details: rated 14 days after application, 0 = no damage, 100 = complete death
# Summary of the method: as §1
# [3] = system: green foxtail (Setaria viridis, SETVI); assay: as above; details: rated 14 days after application, 0 = no damage, 100 = complete death
# Summary of the method: as §1
# [4] = system: johnsongrass (Sorghum halepense, SORHA); assay: as above; details: rated 14 days after application, 0 = no damage, 100 = complete death
# Summary of the method: as §1
# [5] = system: sicklepod (Cassia obtusifolia, CASOB); assay: as above; details: rated 14 days after application, 0 = no damage, 100 = complete death
# Summary of the method: as §1
# [6] = system: large crabgrass (Digitaria sanguinalis, DIGSA); assay: as above; details: rated 14 days after application, 0 = no damage, 100 = complete death
# Summary of the method: as §1
# [7] = system: lambsquarters (Chenopodium album, CHEAL); assay: as above; details: rated 14 days after application, 0 = no damage, 100 = complete death
# Summary of the method: as §1
# [8] = system: velvetleaf (Abutilon theophrasti, ABUTH); assay: as above; details: rated 14 days after application, 0 = no damage, 100 = complete death
# Summary of the method: as §1
# [9] = system: barnyardgrass (Echinochloa crus-galli, ECHCG); assay: Post-emerge test, greenhouse herbicide activity screening; details: post-emerge, 14 days after application, rating scale 0-100
# Summary of the method: (§2)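 Compounds in acetone were track-sprayed at 15-1000 g ai/ha (187 l/ha) on sandy loam pots: pre-emerge one day after seeding, post-emerge at 2-3 leaf stage with 0.25% v/v non-ionic surfactant. Phytotoxicity was rated 14 days later on a 0 (no damage) to 100 (complete death) scale.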
# [10] = system: ivyleaf morningglory (Ipomoea hederacea, IPOHE); assay: as above; details: post-emerge, 14 days after application, rating scale 0-100
# Summary of the method: as §2
# [11] = system: green foxtail (Setaria viridis, SETVI); assay: as above; details: post-emerge, 14 days after application, rating scale 0-100
# Summary of the method: as §2
# [12] = system: redroot pigweed (Amaranthus retroflexus, AMARE); assay: as above; details: post-emerge, 14 days after application, rating scale 0-100
# Summary of the method: as §2
# [13] = system: johnsongrass (Sorghum halepense, SORHA); assay: as above; details: post-emerge, 14 days after application, rating scale 0-100
# Summary of the method: as §2
# [14] = system: sicklepod (Cassia obtusifolia, CASOB); assay: as above; details: post-emerge, 14 days after application, rating scale 0-100
# Summary of the method: as §2
# [15] = system: large crabgrass (Digitaria sanguinalis, DIGSA); assay: as above; details: post-emerge, 14 days after application, rating scale 0-100
# Summary of the method: as §2
# [16] = system: velvetleaf (Abutilon theophrasti, ABUTH); assay: as above; details: post-emerge, 14 days after application, rating scale 0-100
# Summary of the method: as §2
# [17] = system: field corn (Zea mays L., var. Dekalb 535, CORN); assay: Post-emerge test, crop safety; details: post-emerge, 14 days after application, rating scale 0-100
# Summary of the method: (§3)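 Plants grown in 10 cm pots of sandy loam mix received acetone-dissolved compounds through a moving flat-fan nozzle. Doses ranged from 15 to 1000 g ai/ha. Pre-emerge pots were seeded one day earlier, post-emerge pots 8–21 days earlier. Fourteen days on, each pot was graded 0–100 for damage.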
# [18] = system: upland rice (Oryza sp., var. Tebonnet, RICE); assay: Post-emerge test, crop safety; details: post-emerge, 14 days after application, rating scale 0-100
# Summary of the method: as §3
# [19] = system: field corn (Zea mays L., var. Dekalb 535, CORN); assay: Pre-emerge test, crop safety; details: rated 14 days after application, 0 = no damage, 100 = complete death
# Summary of the method: as §2
# [20] = system: upland rice (Oryza sp., var. Tebonnet, RICE); assay: Pre-emerge test, crop safety; details: rated 14 days after application, 0 = no damage, 100 = complete death
# Summary of the method: as §2
# [21] = system: redroot pigweed (Amaranthus retroflexus, AMARE); assay: Pre-emerge test, greenhouse herbicide activity screening; details: rated 14 days after application, 0 = no damage, 100 = complete death
# Summary of the method: as §1
smiles,measurement,setting,value
COc1c(Cl)cc(F)c(-n2c(=O)cc(C(F)(F)F)n(C)c2=O)c1NC(=O)COC(C)=O [2-117],"Pre-emerge Herbicidal Activity, phytotoxicity rating (0-100), ECHCG",[1]; 63 g ai/ha,10
same,"Pre-emerge Herbicidal Activity, phytotoxicity rating (0-100), ECHCG",[1]; 250 g ai/ha,70
same,"Pre-emerge Herbicidal Activity, phytotoxicity rating (0-100), IPOHE",[2]; 63 g ai/ha,100
same,"Pre-emerge Herbicidal Activity, phytotoxicity rating (0-100), IPOHE",[2]; 250 g ai/ha,100
same,"Pre-emerge Herbicidal Activity, phytotoxicity rating (0-100), SETVI",[3]; 63 g ai/ha,30
same,"Pre-emerge Herbicidal Activity, phytotoxicity rating (0-100), SETVI",[3]; 250 g ai/ha,100
same,"Pre-emerge Herbicidal Activity, phytotoxicity rating (0-100), SORHA",[4]; 63 g ai/ha,10
same,"Pre-emerge Herbicidal Activity, phytotoxicity rating (0-100), SORHA",[4]; 250 g ai/ha,60
same,"Pre-emerge Herbicidal Activity, phytotoxicity rating (0-100), CASOB",[5]; 63 g ai/ha,80
same,"Pre-emerge Herbicidal Activity, phytotoxicity rating (0-100), CASOB",[5]; 250 g ai/ha,100
same,"Pre-emerge Herbicidal Activity, phytotoxicity rating (0-100), DIGSA",[6]; 63 g ai/ha,30
same,"Pre-emerge Herbicidal Activity, phytotoxicity rating (0-100), DIGSA",[6]; 250 g ai/ha,90
same,"Pre-emerge Herbicidal Activity, phytotoxicity rating (0-100), CHEAL",[7]; 63 g ai/ha,100
same,"Pre-emerge Herbicidal Activity, phytotoxicity rating (0-100), CHEAL",[7]; 250 g ai/ha,100
same,"Pre-emerge Herbicidal Activity, phytotoxicity rating (0-100), ABUTH",[8]; 63 g ai/ha,100
same,"Pre-emerge Herbicidal Activity, phytotoxicity rating (0-100), ABUTH",[8]; 250 g ai/ha,100
same,phytotoxicity rating ECHCG,[9]; 63 g ai/ha,0
same,phytotoxicity rating ECHCG,[9]; 250 g ai/ha,0
same,phytotoxicity rating IPOHE,[10]; 63 g ai/ha,90
same,phytotoxicity rating IPOHE,[10]; 250 g ai/ha,100
same,phytotoxicity rating SETVI,[11]; 63 g ai/ha,0
same,phytotoxicity rating SETVI,[11]; 250 g ai/ha,0
same,phytotoxicity rating AMARE,[12]; 63 g ai/ha,10
same,phytotoxicity rating AMARE,[12]; 250 g ai/ha,70
same,phytotoxicity rating SORHA,[13]; 63 g ai/ha,0
same,phytotoxicity rating SORHA,[13]; 250 g ai/ha,0
same,phytotoxicity rating CASOB,[14]; 63 g ai/ha,40
same,phytotoxicity rating CASOB,[14]; 250 g ai/ha,95
same,phytotoxicity rating DIGSA,[15]; 63 g ai/ha,0
same,phytotoxicity rating DIGSA,[15]; 250 g ai/ha,0
same,phytotoxicity rating ABUTH,[16]; 63 g ai/ha,80
same,phytotoxicity rating ABUTH,[16]; 250 g ai/ha,100
same,phytotoxicity rating CORN,[17]; 63 g ai/ha,5
same,phytotoxicity rating CORN,[17]; 250 g ai/ha,20
same,phytotoxicity rating RICE,[18]; 63 g ai/ha,10
same,phytotoxicity rating RICE,[18]; 250 g ai/ha,40
same,"Pre-emerge phytotoxicity rating (0-100), crop damage, CORN",[19]; 63 g ai/ha,10
same,"Pre-emerge phytotoxicity rating (0-100), crop damage, CORN",[19]; 250 g ai/ha,35
same,"Pre-emerge phytotoxicity rating (0-100), crop damage, RICE",[20]; 63 g ai/ha,30
same,"Pre-emerge phytotoxicity rating (0-100), crop damage, RICE",[20]; 250 g ai/ha,90
same,"Pre-emerge Herbicidal Activity, phytotoxicity rating (0-100), AMARE",[21]; 63 g ai/ha,90
same,"Pre-emerge Herbicidal Activity, phytotoxicity rating (0-100), AMARE",[21]; 250 g ai/ha,100
CCOC(=O)C(=O)Nc1c(OC)c(Cl)cc(F)c1-n1c(=O)cc(C(F)(F)F)n(C)c1=O [2-118],"Pre-emerge Herbicidal Activity, phytotoxicity rating (0-100), ECHCG",[1]; 63 g ai/ha,0
same,"Pre-emerge Herbicidal Activity, phytotoxicity rating (0-100), ECHCG",[1]; 250 g ai/ha,0
same,"Pre-emerge Herbicidal Activity, phytotoxicity rating (0-100), IPOHE",[2]; 63 g ai/ha,10
same,"Pre-emerge Herbicidal Activity, phytotoxicity rating (0-100), IPOHE",[2]; 250 g ai/ha,80
same,"Pre-emerge Herbicidal Activity, phytotoxicity rating (0-100), SETVI",[3]; 63 g ai/ha,0
same,"Pre-emerge Herbicidal Activity, phytotoxicity rating (0-100), SETVI",[3]; 250 g ai/ha,50
same,"Pre-emerge Herbicidal Activity, phytotoxicity rating (0-100), SORHA",[4]; 63 g ai/ha,0
same,"Pre-emerge Herbicidal Activity, phytotoxicity rating (0-100), SORHA",[4]; 250 g ai/ha,0
same,"Pre-emerge Herbicidal Activity, phytotoxicity rating (0-100), CASOB",[5]; 63 g ai/ha,90
same,"Pre-emerge Herbicidal Activity, phytotoxicity rating (0-100), CASOB",[5]; 250 g ai/ha,40
same,"Pre-emerge Herbicidal Activity, phytotoxicity rating (0-100), DIGSA",[6]; 63 g ai/ha,0
same,"Pre-emerge Herbicidal Activity, phytotoxicity rating (0-100), DIGSA",[6]; 250 g ai/ha,20
same,"Pre-emerge Herbicidal Activity, phytotoxicity rating (0-100), CHEAL",[7]; 63 g ai/ha,90
same,"Pre-emerge Herbicidal Activity, phytotoxicity rating (0-100), CHEAL",[7]; 250 g ai/ha,100
same,"Pre-emerge Herbicidal Activity, phytotoxicity rating (0-100), ABUTH",[8]; 63 g ai/ha,90
same,"Pre-emerge Herbicidal Activity, phytotoxicity rating (0-100), ABUTH",[8]; 250 g ai/ha,100
same,phytotoxicity rating ECHCG,[9]; 63 g ai/ha,0
same,phytotoxicity rating ECHCG,[9]; 250 g ai/ha,0
same,phytotoxicity rating IPOHE,[10]; 63 g ai/ha,50
same,phytotoxicity rating IPOHE,[10]; 250 g ai/ha,90
same,phytotoxicity rating SETVI,[11]; 63 g ai/ha,0
same,phytotoxicity rating SETVI,[11]; 250 g ai/ha,0
same,phytotoxicity rating AMARE,[12]; 63 g ai/ha,30
same,phytotoxicity rating AMARE,[12]; 250 g ai/ha,30
same,phytotoxicity rating SORHA,[13]; 63 g ai/ha,0
same,phytotoxicity rating SORHA,[13]; 250 g ai/ha,0
same,phytotoxicity rating CASOB,[14]; 63 g ai/ha,0
same,phytotoxicity rating CASOB,[14]; 250 g ai/ha,30
same,phytotoxicity rating DIGSA,[15]; 63 g ai/ha,0
same,phytotoxicity rating DIGSA,[15]; 250 g ai/ha,0
same,phytotoxicity rating ABUTH,[16]; 63 g ai/ha,60
same,phytotoxicity rating ABUTH,[16]; 250 g ai/ha,80
same,phytotoxicity rating CORN,[17]; 63 g ai/ha,10
same,phytotoxicity rating CORN,[17]; 250 g ai/ha,20
same,phytotoxicity rating RICE,[18]; 63 g ai/ha,10
same,phytotoxicity rating RICE,[18]; 250 g ai/ha,10
same,"Pre-emerge phytotoxicity rating (0-100), crop damage, CORN",[19]; 63 g ai/ha,0
same,"Pre-emerge phytotoxicity rating (0-100), crop damage, CORN",[19]; 250 g ai/ha,10
same,"Pre-emerge phytotoxicity rating (0-100), crop damage, RICE",[20]; 63 g ai/ha,0
same,"Pre-emerge phytotoxicity rating (0-100), crop damage, RICE",[20]; 250 g ai/ha,30
same,"Pre-emerge Herbicidal Activity, phytotoxicity rating (0-100), AMARE",[21]; 63 g ai/ha,40
same,"Pre-emerge Herbicidal Activity, phytotoxicity rating (0-100), AMARE",[21]; 250 g ai/ha,100
